The record followed here is patent US10143748B2, “B-cell reduction using CD37-specific and CD20-specific binding molecules” (Emergent Product Development Seattle, LLC, priority 2005, dated 2018).

One test relates to BJAB cells. In words: Annexin V/PI apoptosis analysis, BJAB. In kind it is cell-based.
For test [1], the system named is CD19+ primary CLL B cells. Description: tyrosine phosphorylation, 2D gel anti-phosphotyrosine immunoblot. It is filed as cell-based, human. The following applies: 5 ug/ml, 10 minutes, then crosslinker 25 ug/ml 5 minutes, FIG. 29. The procedure:
Freshly isolated CD19+ cells (−50−100×106) from CLL patients were suspended at a concentration of 5×10^6/ml PBS. Cells were then incubated for 10 minutes at 37° C., 5% CO2, with control, trastuzumab (herceptin), or TRU-016 at a final concentration of 5 ug/ml. Cells were spun down, supernatant was removed, and cells were resuspended in fresh PBS of initial volume. Goat anti-human Fc fragment specific crosslinker (25 ug/ml) was added and cells were incubated for an additional 5 minutes. Cells were again spun down, supernatant was removed, and cells were lysed in 1 ml of RIPA lysis buffer with protease and phosphatase inhibitors (10 mM Tris, ph7.4, 150 mM NaCl,1% Triton X-100, 1% deoxycholic acid, 0.1% SDS and 5 mM EDTA all final concentrations. Sigma protease inhibitor cocktail cat#P-8340; Sigma phosphatase inhibitor cocktail: serine/threonine phosphatase inhibitor cocktail pat#P-2850; and tyrosine phosphatase inhibitor cat#P-5726;PMSF (100 mM) were all used. The inhibitors were added to the lysis buffer immediately prior to use at a 1:100 dilution. Protein concentration in the lysates was quantified by the bicin choninic acid (BCA) method (Pierce, Rockford, Ill.). The control arid treated protein samples (SOug total protein) were separated by two-dimensional gel electrophoresis (pH Range 3-10) (1st Dimension) and 10% SDS-PAGE (2nd Dimension). […]

The subject of the next test is B-CLL cells. Description: MTT cell viability of CLL cells with fludarabine and TRU-016. In kind it is cell-based, human. The following applies: MTT at 48 hr, TRU-016 with fludarabine, FIG. 27. The procedure: Cells were treated with TRU-016 at dosages ranging from 0.1-100 μg/mL and with fludarabine at dosages ranging from 0-20 μM (see FIG. 27). TRU-016 was provided by Trubion Pharmaceuticals (Seattle, Wash.). Fludarabine (F-araA) was purchased from SIGMA (St. Louis, Mo.). RPMI 1640 media was purchased from Invitrogen (Carlsbad, Calif.). Fluorescein isothiocyanate (FITC)-labeled annexin V, and propidium iodide (P1) were purchased from BD Pharmingen, San Diego, Calif. 13-(4,5-dimethylthiazol-2-yl)-2,5-diphenyltetrazolium bromide (MTT) was purchased from Sigma (St. Louis, Mo.). B-CLL cells were isolated immediately following donation using ficoll density gradient centrifugation (Ficoll-Paque Plus, Amersham Biosciences, Piscataway, N.J.). […]
Cells were treated in vitro as described herein. […] Cell viability was assessed using MTT assays at 48 hr, and apoptosis was measured using Annexin V/PI at 24 hr.
MTT assays were performed to measure cell viability as described herein. […] Samples were measured with a plate reader at 0.D.540. Cell viability was expressed as the percentage of viability compared with media control.
A synergistic effect was determined by use of the isobologram method. […]

Experimental for BJAB cells: Experiments examining the effect of B cell targeted SMIPS on B cell line apoptosis were performed. Each SMIP was tested individually and then in combination. Samples were analyzed at both 24 and 48 hours after initiation of incubation reactions. […] In addition, 20 μg/mL goat anti-human IgG was added to reactions in order to cross link reagents on the cell surface. Cells were then stained with Annexin V-FITC and propidium iodide using the BD Pharmigen Apoptosis Detection Kit I (#556547), and processed according to kit instructions. Briefly, cells were washed twice with cold PBS and resuspended in “binding buffer” at 1×10^6 cells/mL. One hundred microliters of the cells in binding buffer were then stained with 5 μl of Annexin V-FITC and 5 μl of propidium iodide. The cells were gently vortexed and incubated in the dark at room temperature for 15 minutes. Four hundred microliters of binding buffer was then added to each sample. They were then read and analyzed on a FACsCalibur (Becton Dickinson) instrument using Cell Quest software (Becton Dickinson).

For the substance “G28-1 scFv VH11S(SSC—P)H WCH2 WCH3 [TRU-016]”, the “Annexin V Positive” value in the test on BJAB cells (Bjab, 20 μg/mL SMIP, goat anti-human IgG crosslinking) turned out to be 30.6. Also, the “effect on apoptosis of cell lines” value in the test with BJAB cells (in the presence of crosslinking, BJAB, Ramos, Daudi, Table 2) is “more significant effect on apoptosis of cell lines than TRU-015 alone”. Further, the tyrosine phosphorylation entry in test [1] is “induced tyrosine phosphorylation”. Further, the “relative cell viability in cells treated with fludarabine” value in the test with B-CLL cells is “effectively reduced relative cell viability”.
